Test results reported in article PMC10221314 (Pharmaceuticals, 2023).
“Also recorded” adds a separate entry of the source.

Legend:
FXR downstream genes [1] = conditions: previous study; cited from earlier work
[2] = parameters: method as in PMID 34970143; conditions: 120 mg·Kg^−1; cited from earlier work
LX-2 cells = experiment: mRNA expression of liver fibrosis marker genes in TGFβ1-induced LX-2 cells; type: cell-based; conditions: 10 μM, induced by 2 ng·mL^−1 TGFβ1, 24 h
Protocol: (§1) Cells and liver tissue samples were subjected to RNA extraction and purification, followed by reverse transcription of equal amounts of total RNA into […] using a Transcriptor First Strand cDNA Synthesis Kit (Roche). The relative expression levels of the target gene were determined using TaqMan probe/primers with an ABI Q3 quantitative real-time PCR system, while GAPDH/Gapdh was utilized as an internal control for mRNA expression. The fold change in the expression of the target mRNA was calculated using Equation 2^−ΔΔCt.
(A–E) The LX-2 cells underwent a 24 h treatment of 2 ng·mL^−1 TGFβ1, with or without varying concentrations of candidate compounds, following FBS starvation. […] GAPDH/GAPDH was used as the loading control. The mean ± SD values were obtained from three independent assays. […] ANOVA was followed by Tukey’s test for statistical analysis.

FXR downstream genes [3] = experiment: mRNA expression of FXR downstream genes in HepG2 cells (qRT-PCR); type: cell-based; conditions: 50 μM, 24 h
Protocol: as §1
(A) Relative mRNA level of SHP; (B) Relative mRNA level of BSEP; (C) Relative mRNA level of CYP7A1; (D) Relative mRNA level of SREBP1c; (E) Relative mRNA level of PEPCK; (F) Expression level of G6Pase. HepG2 cells were seeded in a 6-well plate and treated with DMSO and varying concentrations of compound 10b for 24 h with or without 50 μM of 1. The mRNA levels of SHP, BSEP, CYP7A1, SREBP1c, PEPCK, and G6Pase were quantified and normalized to β-actin expression.

HFD mice = test system: HFD mice; parameters: method as in PMID 30635917; conditions: 100 mg·Kg^−1; cited from earlier work
[4] = test system: RXRα, RXRβ, RXRγ, LXRα, LXRβ, PXR, PPARα, PPARβ, PPARγ, and GPBAR; experiment: NR selectivity one-hybrid assay in HEK-293T cells (panel of metabolic NRs); type: cell-based; conditions: with corresponding agonists
Protocol: To assess the compound’s specificity, the mammalian one-hybrid assay was conducted. In this assay, HEK-293T cells were co-transfected with a fusion plasmid of Gal4 DBD-NR LBD (comprising RXRα, RXRβ, RXRγ, PPARα, PPARβ, PPARγ, LXRα, LXRβ, GPBAR, and PXR) and the UAS-TK-Luc reporter, followed by treatment with various concentrations of the compound. The positive control consisted of the corresponding nuclear receptor agonist, and the concentration used in the experiment was set to the EC50 of the agonist.
Figure 3 Compound 10b selectively antagonized FXR. The impact of compound 10b on various NRs was evaluated using a […] one-hybrid assay in HEK-293T cells. The cells were transiently co-transfected with a fusion plasmid of Gal4 DBD-NR-LBD, which included PPARα, PPARβ, PPARγ, RXRα, RXRβ, RXRγ, LXRα, LXRβ, GPBAR, PXR, and FXR, in combination with the UAS-TK-Luc reporter. […] The values are expressed as the means ± SE of three independent experiments. *: p < 0.05 vs. RA (relative agonist).

FXR = target: T1, FXR (Homo sapiens, UniProt Q96RI1); experiment: Yeast one-hybrid assay of FXR antagonistic activity in HEK-293T cells; type: cell-based; conditions: HEK-293T cells; CDCA (50 μM) as agonist; mean ± SE of three independent tests
T1 construct: a fusion plasmid of Gal4 DBD-NR-LBD, which included PPARα, PPARβ, PPARγ, RXRα, RXRβ, RXRγ, LXRα, LXRβ, GPBAR, PXR, and FXR; expressed in transfected cells; host or cells: HEK-293T
T1 sequence (Q96RI1 262-486 limits assumed): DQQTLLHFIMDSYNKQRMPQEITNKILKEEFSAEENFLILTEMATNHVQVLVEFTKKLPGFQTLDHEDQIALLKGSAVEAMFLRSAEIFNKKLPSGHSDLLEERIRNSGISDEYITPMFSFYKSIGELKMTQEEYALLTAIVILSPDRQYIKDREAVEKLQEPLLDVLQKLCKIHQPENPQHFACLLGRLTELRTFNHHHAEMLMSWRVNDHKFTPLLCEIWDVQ
Protocol: Cell counting: HEK-293T cells in logarithmic growth phase were digested with 0.25% trypsin, collected, and centrifuged. The trypsin-containing medium was discarded, and 2 mL of fresh phenol red-free DMEM medium containing 5% fetal bovine serum was added. The cells were then mixed with the medium to prepare a cell suspension and counted on a cell counting plate.
Cell plating: A determined number of cells were taken from the cell suspension, diluted with phenol red-free DMEM medium containing 5% fetal bovine serum, and plated at a concentration of 10,000 cells per well (100 µL medium) in a 96-well plate. The plate was then incubated at 37 °C and 5% CO2 for 24 h.
Cell transfection: Fresh phenol red-free DMEM medium was taken in a sterile environment, and the previously extracted pFXR-Binding plasmid and PG4.35[luc2P-9XGA4UAS-Hygro] plasmid were added. The mixture was stirred and allowed to stand at 23 °C for 3 min. Then, a 3% amount of transfection reagent was added to the mixture, and it was allowed to stand at 23 °C for 15 min. The mixture was then added to the 96-well plate at a volume of 10 µL per well and incubated at 37 °C in a 5% CO2 environment for 24 h.
The OA derivatives were prepared as 10 mM DMSO stock solutions and further diluted in a concentration gradient, with 10 µL added to each well. The final concentrations of the derivatives ranged from 10 µM to 0.03 µM, with 7 concentration gradients using […] dilution. The test was set with 3 duplicated wells.
Antagonism activity test: The firefly-Renilla Dual Fluorescence Assay Kit (Promega, #E2940, Madison, WI, USA) was used to measure the antagonism activity of the OA derivatives. Firstly, the firefly fluorescence reagent was added to the 96-well plate at a volume of 70 µL per well and shaken in darkness for 15 min. Then, the fluorescence intensity was measured at a wavelength of 645 ± 30 nm in a microplate reader (BioTek, Winooski, VT, USA). Next, the volume of Renilla reagent was added to the 96-well plate at a volume of 70 µL per well and shaken in darkness for 15 min. The fluorescence intensity was then measured at a wavelength of 525 ± 20 nm.
Data processing: The fluorescence data of firefly were divided by the fluorescence data of Renilla to remove errors, and the antagonism efficiency was calculated using the following formula: antagonism efficiency (%) = [1 − (FCompds. − FDMSO)/(FCDCA − FDMSO)] × 100%. In the formula, F represents fluorescence intensity. The antagonistic efficiency data were obtained as a concentration–effect curve using Graphpad Prism 8.0 software, and the corresponding IC50 value was calculated.

CC(=O)CCCC(=O)OC1CC2C3(C)CCC(O)C(C)(C)C3CCC2(C)C2(C)CCC3(C(=O)O)CCC(C)(C)CC3C12 (centres unmarked) [Compound 7]
CYP7A1 gene expression (FXR downstream genes [1]): downregulated; also recorded: significantly reduces | G6Pase expression (FXR downstream genes [1]): significantly reduces | PEPCK expression (FXR downstream genes [1]): significantly reduces

C[C@@H]1CC[C@]2(C(=O)O[C@@H]3O[C@H](CO)[C@@H](O)[C@H](O)[C@H]3O)CC[C@]3(C)C(=CC[C@@H]4[C@@]5(C)CC[C@H](O)[C@](C)(C(=O)O)[C@@H]5CC[C@]43C)[C@@H]2[C@]1(C)O [IsA, Ilexsaponin A1]
liver TC levels [2]: reducing | liver TG [2]: reducing | serum TG [2]: reducing

CC[C@H]1[C@@H](O)[C@@H]2[C@H](CC[C@]3(C)[C@@H]([C@H](C)CCC(=O)O)CC[C@@H]23)[C@@]2(C)CC[C@@H](O)C[C@@H]12 [OCA, obeticholic acid, reference compound]
mRNA expression of CTGF (LX-2 cells): decreased

C[C@H](CCC(=O)O)[C@H]1CC[C@H]2[C@@H]3[C@H](O)C[C@@H]4C[C@H](O)CC[C@]4(C)[C@H]3CC[C@]12C [CDCA, Chenodeoxycholic acid, reference compound]
expression of CYP7A1 (mRNA) (FXR downstream genes [3]): decrease

C=C(C)[C@@H]1CC[C@]2(C(=O)O)CC[C@]3(C)[C@H](CC[C@@H]4[C@@]5(C)CC[C@H](O)C(C)(C)[C@@H]5CC[C@]43C)[C@@H]12 [BA, Betulinic acid]
liver TC levels (HFD mice): reduce | liver TG levels (HFD mice): reduce

C/C=C1\C(=O)C[C@H]2[C@@H]3CCC4=CC(=O)CC[C@]4(C)[C@H]3CC[C@]12C [guggulsterone, reference compound]
mRNA expression of ACTA2 (LX-2 cells): significantly decreased | mRNA expression of COL1A1 (LX-2 cells): significantly decreased | antagonism of metabolic NRs [4]: Most NRs were antagonized

CC1(C)CC[C@]2(C(=O)O)CC[C@]3(C)[C@H]([C@H](OC(=O)C[C@@H](CC(=O)OC(C)(C)C)NC(=O)OC(C)(C)C)CC4[C@@]5(C)CC[C@H](O)C(C)(C)C5CC[C@]43C)[C@@H]2C1 (stereo partly drawn) [Compound 10c, 3-hydroxy-12β-((S)-3′-((tert-butoxycarbonyl)amino)-5′-(tert-butoxy)-5-oxopentanoyl)oxy-13H-olean-28-oic acid]
IC50 (FXR): 1340 ± 230 nM
